Measurements: patent US8084621B2, “3-Pyrrolo[b]cyclohexylene-2-dihydroindolinone derivatives and uses thereof” (Jiangsu Simcere Pharmaceutical R&D Co. Ltd., priority 2006, dated 2011)

Legend:
Format in all cases: cell-based
[1] = test system: Human Pancreatic Carcinoma Cell Line (BXPC-3); assay: Tumor cell proliferation assay (MTT), BXPC-3; details: for inhibition at 10 µM: concentration of 10^−5 mol/L, preliminary screening, 72 hours, read-out: Inhibition rate % BXPC-3; for IC50: secondary screening, 48 hours
Source text: (§1) The assay used generally is the blue tetrazolium bromide (MTT) method. […] The amount of formazan can be detected by the microplate reader through the absorption value at 570 nm. The amount of formazan product generated is proportional to the number of living cells in the sample, so the OD value may reflect the number of living cells and the ability of a test drug to inhibit or kill cells. The MTT assay may be used in determining the ability of different compounds of the present invention to inhibit one or more cancer cells proliferation. Similar assays can be designed along the same lines for any cancer cell using techniques well known in the art.
(§2) The assay used generally is the blue tetrazolium bromide (MTT) method. […] Intracellular purple formazan salt crystals can be solved in DMSO and the absorption value at 570 nm is detected by the microplate reader, then the number of living cells can be detected indirectly. So MTT assay may be used to determine the ability of a compound of the present invention to inhibit cell proliferation. Similar assays can be designed along the same lines for any cancer cell using techniques well known in the art.
2.2.6 Human Pancreatic Carcinoma Cell Line (BXPC-3);
The cells of 2.2.6, 2.2.7 cultured in RPMI 1640 medium containing 12% fetal bovine serum in the condition of 37° C., 5% CO2.
(§3) 2.3.1 Cell seeding: Trypsinize the cell by 0.05% trypsin-EDTA and add RPMI 1640 medium (DMEM or 5A) containing 12% calf serum. Count the number, then dilute to 1.67×10^4/ml. Add 180 ul/well to the 96 well plate (3000 cells/well).
(§4) 2.3.2 Culture: cells are incubated for 24 hours at 37° C. under 5% CO2.
(§5) 2.3.3 Preliminary screening: The compounds are firstly diluted to 0.1 mol/L with DMSO, and then diluted to three concentrations of 10^−5 mol/L, 10^−6 mol/L and 10^−7 mol/L. Add 20 ul test compounds to the 96 well plate and incubate for 72 hours. Each group has three parallel wells and all experiments repeat three times. Each inhibition ratio is calculated, then an average value of three times is taken as the measured value. 2.3.4 Staining 2.3.4.1 Attached cell: add 20 ul/well MTT to the 96-well plates; incubate for 4 hours in the incubator. Pour out the culture medium in the well and add 100 ul/well DMSO. Shake the plate for 5 min. 2.3.4.2 Suspension cell: add 20 ul/well MTT to the 96-well plates; incubate for 4 hours in the incubator. Add 50 ul/well 20% SDS and incubate for overnight in the incubator. 2.3.5 Reading the plates: read the absorbance A570-A630 with the Infinite M200 microtiter plate reader. Calculate the inhibition ratio of the test compounds. […] Dilute these compounds to ten concentrations: 10^−5 mol/L, 0.5×10^−5 mol/L, 10^−6 mol/L, 0.8×10^−6 mol/L, 0.6×10^−6 mol/L, 0.4×10^−6 mol/L, 0.2×10^−6 mol/L, 10^−7 mol/L, 0.8×10^−7 mol/L and 0.4×10^−7 mol/L. Add 20 ul test compound solution to the 96 well plate and incubate for 48 hours. Each group has three parallel wells and all experiments repeat for three times. Read the plates and calculate the inhibition ratio according to the preliminary screening method. 2.3.7 Calculate the Inhibition Ratio of Cell Proliferation and the IC50
(§6) According to the inhibition ratio of cell proliferation at the different concentrations of the compound, inhibition ratio of 50% of the test compound is calculated through the logarithm of the concentration of the compound with the Logit [I] linear regression, and an average value of three times is taken as the measured value of a sample.

[2] = test system: Human Colon Cancer Cell Line (HT-29); assay: Tumor cell proliferation assay (MTT), HT29; details: for inhibition at 10 µM: concentration of 10^−5 mol/L, preliminary screening, 72 hours, read-out: Inhibition rate % HT29; for IC50: secondary screening, 48 hours
Source text: as §1, §2
2.2.11 Human Colon Cancer Cell Line (HT-29);
The cells of 2.2.11, 2.2.12, 2.2.13 were cultured in MC COYS 5-A medium containing 12% fetal bovine serum in the condition of 37° C., 5% CO2.
as §3, §4, §5, §6

[3] = test system: Human Pancreatic Carcinoma Cells (PANC-1); assay: Tumor cell proliferation assay (MTT), PANC-1; details: for inhibition at 10 µM: concentration of 10^−5 mol/L, preliminary screening, 72 hours, read-out: Inhibition rate % PANC-1; for IC50: secondary screening, 48 hours
Source text: as §1, §2
2.2.4 Human Pancreatic Carcinoma Cells (PANC-1)
The cells of the 2.2.1, 2.2.2, 2.2.3, 2.2.4, 2.2.5 cultured with RPMI 1640 containing 12% calf serum in the condition of 37° C., 5% CO2.
as §3, §4
2.3.3 Preliminary screening: The compounds are firstly diluted to 0.1 mol/L with DMSO, and then diluted to three concentrations of 10^−5 mol/L, 10^−6 mol/L and 10^−7 mol/L. Add 20 ul test compounds to the 96 well plate and incubate for 72 hours. Each group has three parallel wells and all experiments repeat three times. Each inhibition ratio is calculated, then an average value of three times is taken as the measured value. 2.3.4 Staining 2.3.4.1 Attached cell: add 20 ul/well MTT to the 96-well plates; incubate for 4 hours in the incubator. Pour out the culture medium in the well and add 100 ul/well DMSO. Shake the plate for 5 min. 2.3.4.2 Suspension cell: add 20 ul/well MTT to the 96-well plates; incubate for 4 hours in the incubator. Add 50 ul/well 20% SDS and incubate for overnight in the incubator. 2.3.5 Reading the plates: read the absorbance A570-A630 with the Infinite M200 microtiter plate reader. Calculate the inhibition ratio of the test compounds. 2.3.6 Secondary screening: the compounds whose inhibition ratio is greater than 50% at the concentrations of 10^−5 mol/L in the preliminary screening will be picked out for Secondary screening. Dilute these compounds to ten concentrations: 10^−5 mol/L, 0.5×10^−5 mol/L, 10^−6 mol/L, 0.8×10^−6 mol/L, 0.6×10^−6 mol/L, 0.4×10^−6 mol/L, 0.2×10^−6 mol/L, 10^−7 mol/L, 0.8×10^−7 mol/L and 0.4×10^−7 mol/L. Add 20 ul test compound solution to the 96 well plate and incubate for 48 hours. Each group has three parallel wells and all experiments repeat for three times. Read the plates and calculate the inhibition ratio according to the preliminary screening method. 2.3.7 Calculate the Inhibition Ratio of Cell Proliferation and the IC50
as §6

Row | IC50 [1] | IC50 [2] | IC50 [3] | SMILES | inhibition at 10 µM [1] | inhibition at 10 µM [2] | inhibition at 10 µM [3]
1 | – | – | – | Cc1[nH]c2c(c1C(=O)N1CCN(C)CC1)CCC/C2=C1/C(=O)Nc2ccc(F)cc21 [I-14, 2-methyl-3-(4-methylpiperazine-1-carbonyl)-7-[1,2-dihydro-5-fluoro-2-oxo-3H-indol-(Z)-3-ylidene]-4,5,6,7-tetrahydro-1H-indole] | 68.3% | 43.3% | 14%
2 | – | – | – | CCN(CC)CCNC(=O)c1c(C)[nH]c2c1CCC/C2=C1/C(=O)Nc2ccc(C)cc21 [I-4, N-(2-(diethylamino)ethyl)-2-methyl-7-[1,2-dihydro-5-methyl-2-oxo-3H-indol-(Z)-3-ylidene]-4,5,6,7-tetrahydro-1H-indole-3-carboxamide] | 78.4% | 89.9% | –
3 | 5990 nM | 4380 nM | – | Cc1[nH]c2c(c1C(=O)NCCN(C)C)CCC/C2=C1/C(=O)Nc2ccc(F)cc21 [I-6, N-(2-(dimethylamino)ethyl)-2-methyl-7-[1,2-dihydro-5-fluoro-2-oxo-3H-indol-(Z)-3-ylidene]-4,5,6,7-tetrahydro-1H-indole-3-carboxamide] | 64.9% | 61.9% | 19.8%
4 | 1240 nM | 640 nM | – | Cc1[nH]c2c(c1C(=O)NCC(O)CN1CCCCC1)CCC/C2=C1/C(=O)Nc2ccccc21 (centres unmarked) [I-73, N-(2-hydroxy-3-(piperidin-1-yl)propyl)-2-methyl-7-[1,2-dihydro-2-oxo-3H-indol-(Z)-3-ylidene]-4,5,6,7-tetrahydro-1H-indole-3-carboxamide] | 90.2% | 95.6% | 48%
5 | 6490 nM | – | – | Cc1[nH]c2c(c1C(=O)NCC(O)CN1CCOCC1)CCC/C2=C1/C(=O)Nc2ccc(F)cc21 (centres unmarked) [I-68, N-(2-hydroxy-3-morpholinopropyl)-2-methyl-7-[1,2-dihydro-5-fluoro-2-oxo-3H-indol-(Z)-3-ylidene]-4,5,6,7-tetrahydro-1H-indole-3-carboxamide] | 60.7% | 31.3% | 34.3%
6 | 2730 nM | 790 nM | 1480 nM | Cc1[nH]c2c(c1C(=O)NCC(O)CN1CCCC1)CCC/C2=C1/C(=O)Nc2ccc(F)cc21 (centres unmarked) [I-71, N-(2-hydroxy-3-(pyrrolidin-1-yl)propyl)-2-methyl-7-[1,2-dihydro-5-fluoro-2-oxo-3H-indol-(Z)-3-ylidene]-4,5,6,7-tetrahydro-1H-indole-3-carboxamide] | 98.9% | 95% | 97.4%
7 | 8700 nM | 8380 nM | 5530 nM | Cc1[nH]c2c(c1C(=O)NCC(O)CN1CCN(C)CC1)CCC/C2=C1/C(=O)Nc2ccc(F)cc21 (centres unmarked) [I-77, N-[2-hydroxy-3-(4-methylpiperazin-1-yl)propyl]-2-methyl-7-[1,2-dihydro-5-fluoro-2-oxo-3H-indol-(Z)-3-ylidene]-4,5,6,7-tetrahydro-1H-indole-3-carboxamide] | 45.9% | 74.4% | 61.9%
8 | 3430 nM | 3060 nM | 6630 nM | Cc1[nH]c2c(c1C(=O)NCCCN(C)C)CCC/C2=C1/C(=O)Nc2ccc(Cl)cc21 [I-7, N-(3-(dimethylamino)propyl)-2-methyl-7-[1,2-dihydro-5-chloro-2-oxo-3H-indol-(Z)-3-ylidene]-4,5,6,7-tetrahydro-1H-indole-3-carboxamide] | 69.5% | 78.4% | 51.8%
9 | 240 nM | 420 nM | – | Cc1[nH]c2c(c1C(=O)NCC(O)CN1CCCCC1)CCC/C2=C1/C(=O)Nc2ccc(F)cc21 (centres unmarked) [I-74, N-(2-hydroxy-3-(piperidin-1-yl)propyl)-2-methyl-7-[1,2-dihydro-5-fluoro-2-oxo-3H-indol-(Z)-3-ylidene]-4,5,6,7-tetrahydro-1H-indole-3-carboxamide] | 32.1% | 92.2% | 93.6%
10 | – | – | – | Cc1[nH]c2c(c1C(=O)NCCO)CCC/C2=C1/C(=O)Nc2ccc(F)cc21 [I-9, N-(2-hydroxyethyl)-2-methyl-7-[1,2-dihydro-5-fluoro-2-oxo-3H-indol-(Z)-3-ylidene]-4,5,6,7-tetrahydro-1H-indole-3-carboxamide] | 63.7% | 66.7% | 0%
11 | 1170 nM | – | – | Cc1[nH]c2c(c1C(=O)NCCO)CCC/C2=C1/C(=O)Nc2ccccc21 [I-8, N-(2-hydroxyethyl)-2-methyl-7-[1,2-dihydro-2-oxo-3H-indol-(Z)-3-ylidene]-4,5,6,7-tetrahydro-1H-indole-3-carboxamide] | 74.9% | 84.8% | 5.66%
12 | 1950 nM | 6480 nM | 1940 nM | CCN(CC)CCNC(=O)c1c(C)[nH]c2c1CCC/C2=C1/C(=O)Nc2ccc(Cl)cc21 [I-3, N-(2-(diethylamino)ethyl)-2-methyl-7-[1,2-dihydro-5-chloro-2-oxo-3H-indol-(Z)-3-ylidene]-4,5,6,7-tetrahydro-1H-indole-3-carboxamide] | 96% | 65.1% | 69.8%
13 | 520 nM | 540 nM | – | CCN(CC)CCNC(=O)c1c(C)[nH]c2c1CCC/C2=C1/C(=O)Nc2ccccc21 [I-5, N-(2-(diethylamino)ethyl)-2-methyl-7-[1,2-dihydro-2-oxo-3H-indol-(Z)-3-ylidene]-4,5,6,7-tetrahydro-1H-indole-3-carboxamide] | 89.4% | 91.5% | 47.8%
14 | 520 nM | 1200 nM | – | CCN(CC)CCNC(=O)c1c(C)[nH]c2c1CCC/C2=C1/C(=O)Nc2ccc(F)cc21 [I-2, N-(2-(diethylamino)ethyl)-2-methyl-7-[1,2-dihydro-5-fluoro-2-oxo-3H-indol-(Z)-3-ylidene]-4,5,6,7-tetrahydro-1H-indole-3-carboxamide] | 79.4% | 97.4% | 70.6%
